Consider 31 molecules from patent US6498154B1, “Cyclic regimens using quinazolinone and benzoxazine derivatives” (Wyeth, priority 1999, dated 2002).

Where “and” joins values, the source holds several entries; their conditions need not be identical. Identical values can stand only once.

In one series the test system is T47D cells. Put plainly: T47D cell proliferation assay (BrdU incorporation). To be noted: half-maximal decrease in trimegestone induced BrdU incorporation, read-out: Estimated IC50. In kind it is cell-based. On the procedure: 3. T47D Cell Proliferation Assay
The objective of this assay is the determination of progestational and antiprogestational potency by using a cell proliferation assay in T47D cells. A compound's effect on DNA synthesis in T47D cells is measured.
DMEM:F12 (1:1) (GIBCO, BRL) supplemented with 10% (v/v) fetal bovine serum (not heat-inactivated), 10 U/ml penicillin, […] streptornycin, and 2 mM GlutaMax (GIBCO, BRL).
Minimum Essential Medium (MEM) (#51200-038GIBCO, BRL) phenol red-free supplemented with 0.5% charcoal stripped fetal bovine serum, 100 U/ml penicillin, […] streptornycin, and 2 mM GlutaMax (GIBCO, BRL).
Stock T47 D cells are maintained in growth medium. For BrdU incorporation assay, cells are plated in 96-well plates (Falcon, Becton Dickinson Labware) at 10,000 cells/well in growth medium. […]
At the end of BrdU labeling, the medium is removed and BrdU incorporation is measured using a cell proliferation ELISA kit (#RPN 250, Amersham Life Science) according to manufacturer's instructions. […] Then 25 μl of 1 M sulfuric acid is added to each well to stop color reaction and optical density is read in a plate reader at 450 nm within 5 min.
Square root-transformed data are used for analysis of variance and nonlinear dose response curve fitting for both agonist and antagonist modes. […] EC50 or IC50 values are calculated from the retransformed values. […]
For orientation: IC50 means the concentration at which inhibition is half-maximal. As to `CC#C[C@]1(O)CC[C@H]2[C@@H]3CCC4=CC(=O)CCC4=C3[C@@H](c3ccc(N(C)C)cc3)C[C@@]21C` [RU486], the IC50 is 0.016 nM and 0.018 nM.

The same series, now with this note: half-maximal increase in BrdU incorporation, individual studies, read-out: Estimated EC50.
What is called EC50 is the concentration that produces a half-maximal response. For the molecule `C[C@H](O)C(=O)[C@@]1(C)CC[C@H]2[C@@H]3CCC4=CC(=O)CCC4=C3CC[C@@]21C` [Trimegestone, trimegestone], the EC50 is 0.017 nM and 0.014 nM and 0.019 nM.

System in the next series: not given
Assay: not given
Conditions: not given
By melting point is commonly meant the temperature of the solid-liquid transition. `Cc1cc(C#N)sc1-c1ccc2c(c1)C(C)(C)OC(C)N2` (stereo not shown) [Example 16, 4-Methyl-5(2,4,4-trimethyl-1,4-dihydro-2H-3,1-benzoxazin-6-yl)thiophene-2-carbonitrile] came in with a melting point of 145 to 146 °C. Same read-out and setting: in the case of `CC1(C)OC(C(F)(F)F)Nc2ccc(-c3cccc(Cl)c3)cc21` (stereo not shown) [Example 39, 6-(3-Chlorophenyl)-4,4-dimethyl-2-(trifluoromethyl)-1,4-dihydro-2H-3,1-benzoxazine] it was 108 to 109 °C; in that of `CN1C(=O)Nc2ccc(-c3cccc(Cl)c3)cc2C1(C)C1CC1` (stereo not shown) [drawing 34, R = Me, 6-(3-Chlorophenyl)-4-cyclopropyl-3,4-dimethyl3,4dihydro-1H-guinazolin-2-one], 193 to 194 °C. For the molecule `CC1Nc2ccc(-c3cc(F)cc(C#N)c3)cc2C(C)(C)O1` (stereo not shown) [Example 14, 3-Fluoro-5-(2,4,4-trimethyl-1,4-dihydro-2H-3,1-benzoxazin-6-yl)benzonitrile], the melting point fell in the range of 163 to 164 °C. Turning to `CC1(C)CC(=O)Nc2ccc(-c3cccc(F)c3)cc21` [Example 40, 6(3-Fluorophenyl)-4,4-dimethyl-3,4-dihydroquinolin-2(1H)-one], the melting point lay in the range of 190 to 192 °C. The same measure, in the same setting: the same measure for `CC1(C)CC(=O)Nc2ccc(-c3cccc(Cl)c3)cc21` [6-(3-Chlorophenyl)-4,4-dimethyl-3,4-dihydro-1H-quinolin-2-one]: 211 to 215 °C; for `CC1(C)CC(=S)Nc2ccc(-c3cc(F)cc(C#N)c3)cc21` [Example 46, 3-(4,4-Dimethyl-2-thioxo-1,2,3,4-tetrahydroquinolin-6-yl)5-fluorobenzonitrile]: 240 to 242 °C (dec.); for `CC1Nc2ccc(-c3csc(C#N)c3)cc2C(C)(C)O1` (stereo not shown) [Example 15, 4-(2,4,4-Trimethyl-1,4-dihydro-2H-3,1-benzoxazin-6-yl)thiophene-2-carbonitrile]: 175 to 176 °C. In turn, `CC1Nc2ccc(-c3ccc(C#N)s3)cc2C(C)(C)O1` (stereo not shown) [Example 13, 5-(2,4,4-Trimethyl-1,4-dihydro-2H-3,1-benzoxazin-6-yl)thiophene-2-carbonitrile] yielded a melting point of 172 to 173 °C. The same measure, in the same setting: in the case of `Cc1cc(C#N)sc1-c1ccc2c(c1)C(C)(C)OC(C(F)(F)F)N2` (stereo not shown) [Example 38, 5-[4,4-Dimethyl-2-(trifluoromethyl)-1,4-dihydro-2H-3,1-benzoxazin-6yl]-4-methylthiophene-2-carbonitrile] it was 97 to 98 °C; in that of `CC1(C)CC(=S)Nc2ccc(-c3cccc(F)c3)cc21` [Example 44, 6-(3-Fluorophenyl)-4,4-dimethyl-3,4-dihydroquinoline-2(1H)-thione], 209 to 211 °C. As for `CC1(C2CC2)NC(=O)Nc2ccc(-c3cccc(Cl)c3)cc21` (stereo not shown) [drawing 34, R = H, 6-(3-Chlorophenyl)-4-cyclopropyl-4-methyl-3,4-dihydro-1H-quinazolin-2-one], the melting point fell in the range of 125 to 127 °C.

The molecule `CC1OC(C)(C)Nc2ccc(-c3cccc([N+](=O)[O-])c3)cc21` (stereo not shown) [Compound 3, 6-(3-Nitro-phenyl)-2,2,4,-trimethyl-1,4dihydro-2H-benzo[d][1,3]oxazine] displayed a melting point of 188 to 189 °C.

Molecule `CC1Nc2ccc(-c3ccc(F)c(C#N)c3)cc2C(C)(C)O1` (stereo not shown) [Example 30, 2-Fluoro-5-(2,4,4-trimethyl-1,4-dihydro-2H-3,1-benzoxazin-6-yl)benzonitrile] came in with a melting point of 184 to 186 °C. Take `C[C@@H]1Nc2ccc(-c3cc(F)cc(C#N)c3)cc2[C@](C)(c2ccccc2)O1` [Example 17, 3-[(2R,4S)-2,4-Dimethyl-4-phenyl-1,4-dihydro-2H-3,1-benzoxazin-6-yl]-5-fluorobenzonitrile]: the melting point lay in the range of 128 to 129 °C. The same measure, in the same setting: the same measure for `CC1Nc2ccc(-c3cccc(F)c3)cc2C(C)(C)O1` (stereo not shown) [Example 27, 6-(3-Fluorophenyl)-2,4,4-trimethyl-1,4-dihydro-2H-3,1-benzoxazine]: 139 to 140 °C; for `CC1Nc2ccc(-c3csc(C#N)c3)cc2C2(CCCCC2)O1` (stereo not shown) [Example 26, 4-(2-Methylspiro[2H-3,1-benzoxazine-4,1′-cyclohexane]-6-yl)2-thiophenecarbonitrile]: 111 to 112 °C. For the molecule `CC1(C)OC(C(F)(F)F)Nc2ccc(-c3cc(F)cc(C#N)c3)cc21` (stereo not shown) [Example 32, 3-[4,4-Dimethyl-2-(trifluoromethyl)-1,4-dihydro-2H-3,1-benzoxazin-6-yl]-5-fluorobenzonitrile], the melting point lay in the range of 102 to 103 °C. Same read-out and setting: in the case of `CC1Nc2ccc(-c3ccc(C#N)[nH]3)cc2C(C)(C)O1` (stereo not shown) [Example 20, 5-(2,4,4-Trimethyl-1,4-dihydro-2H-3,1-benzoxazin-6-yl)1H-pyrrole-2-carbonitrile] it was 201 to 202 °C. On the same count and under the same terms, in the case of `CC1Nc2ccc(-c3coc(C#N)c3)cc2C(C)(C)O1` (stereo not shown) [Example 31, 4-(2,4,4-Trimethyl-1,4-dihydro-2H-3,1-benzoxazin-6-yl)-2-furonitrile] it was 116 to 118 °C; in that of `CC1Nc2ccc(-c3cccc(Cl)c3)cc2C(C)(C)O1` (stereo not shown) [Example 28, 6-(3-Chlorophenyl)-2,4,4-trimethyl-1,4-dihydro-2H-3,1-benzoxazine], 144 to 146 °C; in that of `CC1Nc2ccc(-c3ccc(F)c(Cl)c3)cc2C(C)(C)O1` (stereo not shown) [Example 29, 6(3-Chloro-4-fluorophenyl)-2,4,4-trimethyl-1,4dihydro-2H-3,1-benzoxazine], 173 to 175 °C. Take `CC1(C)CC(=O)Nc2ccc(-c3cccc(C#N)c3)cc21` [Example 42, 3-(4,4-Dimethyl-2-oxo-1,2,3,4-tetrahydroquinolin-6-yl)benzonitrile]: the melting point was in the range of 190 to 192 °C. Still for that read-out and setting: in the case of `CC1OC(C)(C)c2cc(-c3ccc(C#N)n3C(=O)OC(C)(C)C)ccc2N1C(=O)OCC1c2ccccc2-c2ccccc21` (stereo not shown) [Example 19, 9H-Fluoren-9-ylmethyl-6-[1-(tert-butoxycarbonyl)-5-cyano-1H-pyrrol-2-yl]-2,4,4-trimethyl-2H-3,1-benzoxazine-1(4H)-carboxylate] it was 135 to 136 °C; in that of `CC1(C)CC(=O)Nc2ccc(-c3cc(F)cc(C#N)c3)cc21` [Example 41, 3-(4,4-Dimethyl-2-oxo-1,2,3,4-tetrahydroquinolin-6-yl)-5-fluorobenzonitrile], 249 to 250 °C.

In another series the test system is rat uterine decidualization. Put plainly: Rat decidualization assay. Particulars: average of dose-response curves, rat decidualization, s.c. In kind it is in vivo. On the procedure: 1. Rat decidualization assay
b. Animals (RACUC protocol #5002)
The animals are treated once daily for seven days.
Uteri are removed and trimmed of fat.
Body weight: Mean total animal body weight (default-kg)
Decidual response: [(D-C)/C]×100%
For the molecule `C#C[C@]1(O)CC[C@H]2[C@@H]3CCC4=CC(=O)CC[C@@H]4[C@H]3C(=C)C[C@@]21CC` [3-Ketodesogestrel, 3-ketodesogestrel], the “Estimated average EC50” value was 0.10 mg/kg, s.c. The same measure, in the same setting: in the case of `C#C[C@]1(O)CC[C@H]2[C@@H]3CCC4=CC(=O)CC[C@@H]4[C@H]3CC[C@@]21CC` [Levonorgestrel, levonorgestrel] it was 0.10 mg/kg, s.c.

Staying with this series, now noted: decrease in EC50 progesterone (5.6 mg/kg) induced decidual response, rat, s.c.
Take `CC#C[C@]1(O)CC[C@H]2[C@@H]3CCC4=CC(=O)CCC4=C3[C@@H](c3ccc(N(C)C)cc3)C[C@@]21C` [RU486]: the “Estimated IC50” value is 0.21 mg/kg, s.c. and 0.14 mg/kg, s.c.

The series is the same for the next values; noted with them: ovariectomized female Sprague-Dawley rats, once daily for seven days, s.c.; individual studies.
On to `CC(=O)[C@H]1CC[C@H]2[C@@H]3CCC4=CC(=O)CC[C@]4(C)[C@H]3CC[C@]12C` [Progesterone, progesterone], for which the “Estimated EC50 for uterine wet weight” value is recorded as 5.50 mg/kg, s.c. Same read-out and setting: the same measure for `C#C[C@]1(O)CC[C@H]2[C@@H]3CCC4=CC(=O)CC[C@@H]4[C@H]3C(=C)C[C@@]21CC` [3-Ketodesogestrel, 3-ketodesogestrel]: 0.10 mg/kg, s.c. and 0.06 mg/kg, s.c. and 0.11 mg/kg, s.c; for `C#C[C@]1(O)CC[C@H]2[C@@H]3CCC4=CC(=O)CC[C@@H]4[C@H]3CC[C@@]21CC` [Levonorgestrel, levonorgestrel]: 0.08 mg/kg, s.c. and 0.12 mg/kg, s.c. and 0.09 mg/kg, s.c. (2×); for `CC(=O)O[C@]1(C(C)=O)CC[C@H]2[C@@H]3C[C@H](C)C4=CC(=O)CC[C@]4(C)[C@H]3CC[C@@]21C` [MPA, medroxyprogesterone acetate]: 0.42 mg/kg, s.c. and 0.39 mg/kg, s.c. (2×).
